How the values were obtained:
human capsaicin receptor [1] = target: T1, human capsaicin receptor (Homo sapiens, UniProt Q8NER1); experiment: Calcium mobilization assay, determination of antagonist activity; assay type: cell-based; conditions: cells expressing human capsaicin receptor; capsaicin at its EC50; FLUO-3 fluorescence
T1 construct: transfected with the pBK-CMV expression construct encoding the full length human capsaicin receptor; expressed in transfected cells
Protocol: A cDNA encoding full length human capsaicin receptor (SEQ ID NO:1, 2 or 3 of U.S. Pat. No. 6,482,611) was subcloned in the plasmid pBK-CMV (Stratagene, La Jolla, Calif.) for recombinant expression in mammalian cells.
Human embryonic kidney (HEK293) cells were transfected with the pBK-CMV expression construct encoding the full length human capsaicin receptor using standard methods. The transfected cells were selected for two weeks in media containing G418 (400 μg/ml) to obtain a pool of stably transfected cells. Independent clones were isolated from this pool by limiting dilution to obtain clonal stable cell lines for use in subsequent experiments.
(§1) Cells transfected with expression plasmids (as described in Example 4) and thereby expressing human capsaicin receptor are seeded and grown to 70-90% confluency in FALCON black-walled, clear-bottomed 96-well plates (#3904, BECTON-DICKINSON, Franklin Lakes, N.J.). The culture medium is emptied from the 96 well plates and FLUO-3 AM calcium sensitive dye (Molecular Probes, Eugene, Oreg.) is added to each well (dye solution: 1 mg FLUO-3 AM, 440 μL DMSO and 440 μl 20% pluronic acid in DMSO, diluted 1:250 in Krebs-Ringer HEPES (KRH) buffer (25 mM HEPES, 5 mM KCl, 0.96 mM NaH2PO4, 1 mM MgSO4, 2 mM CaCl2, 5 mM glucose, 1 mM probenecid, pH 7.4), 50 μl diluted solution per well). Plates are covered with aluminum foil and incubated at 37° C. for 1-2 hours in an environment containing 5% CO2. After the incubation, the dye is emptied from the plates, and the cells are washed once with KRH buffer, and resuspended in KRH buffer.
To measure the ability of a test compound to agonize or antagonize a calcium mobilization response in cells expressing capsaicin receptors to capsaicin or other vanilloid agonist, the EC50 of the agonist capsaicin is first determined. An additional 20 μl of KRH buffer and 1 μl DMSO is added to each well of cells, prepared as described above. 100 μl capsaicin in KRH buffer is automatically transferred by the FLIPR instrument to each well. Capsaicin-induced calcium mobilization is monitored using either FLUOROSKAN ASCENT (Labsystems; Franklin, Mass.) or FLIPR (fluorometric imaging plate reader system; Molecular Devices, Sunnyvale, Calif.) instruments. Data obtained between 30 and 60 seconds after agonist application are used to generate an 8-point concentration response curve, with final capsaicin concentrations of 1 nM to 3 μM. […] software (Synergy Software, Reading, Pa.) is used to fit the data to the equation: y=a*(1/(1+(b/x)^c)) to determine the 50% excitatory concentration (EC50) for the response. In this equation, y is the maximum fluorescence signal, x is the concentration of the agonist or antagonist (in this case, capsaicin), a is the Emax, b corresponds to the EC50 value and c is the Hill coefficient. Determination of Agonist Activity
Test compounds are dissolved in DMSO, diluted in 20 μl KRH buffer so that the final concentration of test compounds in the assay well is between 1 μM and 5 μM, and added to cells prepared as described above. The 96 well plates containing prepared cells and test compounds are incubated in the dark, at room temperature for 0.5 to 6 hours. It is important that the incubation not continue beyond 6 hours. Just prior to determining the fluorescence response, 100 μl capsaicin in KRH buffer at twice the EC50 concentration determined as described above is automatically added by the FLIPR instrument to each well of the 96 well plate for a final sample volume of 200 μl and a final capsaicin concentration equal to the EC50. The final concentration of test compounds in the assay wells is between 1 μM and 5 μM.

human capsaicin receptor [2] = target: T1, human capsaicin receptor; experiment: Calcium mobilization assay, agonist response (capsaicin positive control); assay type: cell-based; conditions: capsaicin as positive control in cells expressing human capsaicin receptor; read-out: approximate EC90 concentration
Protocol: as §1, with “Plates are covered with aluminum foil and incubated at 37° C. for 1-2 hours in an environment containing 5% CO2. After the incubation, the dye is emptied from the plates, and the cells are washed once with KRH buffer, and resuspended in KRH buffer.” left out
To measure the ability of a test compound to agonize or antagonize a calcium mobilization response in cells expressing capsaicin receptors to capsaicin or other vanilloid agonist, the EC50 of the agonist capsaicin is first determined. […] Capsaicin-induced calcium mobilization is monitored using either FLUOROSKAN ASCENT (Labsystems; Franklin, Mass.) or FLIPR (fluorometric imaging plate reader system; Molecular Devices, Sunnyvale, Calif.) instruments. […] In this equation, y is the maximum fluorescence signal, x is the concentration of the agonist or antagonist (in this case, capsaicin), a is the Emax, b corresponds to the EC50 value and c is the Hill coefficient. […]

VR = conditions: typical value, non-selective cation channel blocker; cited from earlier work

T1 sequence (Q8NER1 whole entry): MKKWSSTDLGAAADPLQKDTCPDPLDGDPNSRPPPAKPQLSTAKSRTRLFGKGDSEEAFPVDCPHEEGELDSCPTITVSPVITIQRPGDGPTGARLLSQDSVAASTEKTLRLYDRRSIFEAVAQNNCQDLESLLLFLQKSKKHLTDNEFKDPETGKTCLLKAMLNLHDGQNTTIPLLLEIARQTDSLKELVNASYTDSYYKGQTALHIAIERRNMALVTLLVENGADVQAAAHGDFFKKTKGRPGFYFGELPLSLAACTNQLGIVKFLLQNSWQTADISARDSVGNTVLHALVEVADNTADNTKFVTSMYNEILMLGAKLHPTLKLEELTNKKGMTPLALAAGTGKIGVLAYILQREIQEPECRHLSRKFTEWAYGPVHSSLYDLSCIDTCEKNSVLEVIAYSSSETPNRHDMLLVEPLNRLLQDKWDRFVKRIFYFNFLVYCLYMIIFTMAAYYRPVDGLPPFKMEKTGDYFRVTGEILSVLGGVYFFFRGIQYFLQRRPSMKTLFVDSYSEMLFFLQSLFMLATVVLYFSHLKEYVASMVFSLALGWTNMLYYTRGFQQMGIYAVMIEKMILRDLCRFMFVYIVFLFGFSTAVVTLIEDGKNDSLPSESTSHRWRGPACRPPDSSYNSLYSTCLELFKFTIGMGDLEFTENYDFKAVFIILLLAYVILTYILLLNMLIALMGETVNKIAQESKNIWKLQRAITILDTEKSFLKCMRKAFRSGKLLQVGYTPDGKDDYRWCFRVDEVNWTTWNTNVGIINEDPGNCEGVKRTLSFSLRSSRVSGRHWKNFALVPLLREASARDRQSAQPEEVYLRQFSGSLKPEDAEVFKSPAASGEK

Structure (SMILES) | IC50 (human capsaicin receptor [1]) | also measured
OCCC1CCN(c2cc(N3CCN(c4ncccc4C(F)(F)F)CC3)nc(N3CCOCC3)n2)CC1 [2-[1-(2-morpholin-4-yl-6-{4-[3-(trifluoromethyl)pyridin-2-yl]piperazin-1-yl}pyrimidin-4-yl)piperidin-4-yl]ethanol] | ≤ 1000 nM | 
FC(F)(F)c1cccnc1N1CCN(c2cc(N3CCOCC3)nc(N3CCOCC3)n2)CC1 [4,4′-(6-{4-[3-(trifluoromethyl)pyridin-2-yl]piperazin-1-yl}pyrimidine-2,4-diyl)dimorpholine] | ≤ 1000 nM | 
FC(F)(F)c1cccnc1N1CCN(c2cc(N3CCCCC3)nc(N3CCOCC3)n2)CC1 [4-(4-piperidin-1-yl-6-{4-[3-(trifluoromethyl)pyridin-2-yl]piperazin-1-yl}pyrimidin-2-yl)morpholine] | ≤ 1000 nM | 
FC(F)(F)c1cccnc1N1CCN(c2cc(N3CCCC3)nc(N3CCOCC3)n2)CC1 [4-(4-pyrrolidin-1-yl-6-{4-[3-(trifluoromethyl)pyridin-2-yl]piperazin-1-yl}pyrimidin-2-yl)morpholine] | ≤ 1000 nM | 
Fc1ccc2c(c1)CCN2c1cc(N2CCN(c3ncccc3C(F)(F)F)CC2)nc(N2CCOCC2)n1 [5-fluoro-1-(2-morpholin-4-yl-6-{4-[3-(trifluoromethyl)pyridin-2-yl]piperazin-1-yl}pyrimidin-4-yl)indoline] | ≤ 1000 nM | 
Cc1cc(C(N)=O)cnc1N1CCN(c2cc(N3CCCCC3)nc(N3CCCC3C)n2)[C@H](C)C1 (stereo partly shown) [5-methyl-6-{3-methyl-4-[2-(2-methylpyrrolidin-1-yl)-6-piperidin-1-ylpyrimidin-4-yl]piperazin-1-yl}nicotinamide] | ≤ 1000 nM | 
Cc1cc(C(=O)O)cnc1N1CCN(c2cc(N3CCCCC3)nc(N3CCCC3C)n2)[C@H](C)C1 (stereo partly shown) [5-methyl-6-{3-methyl-4-[2-(2-methylpyrrolidin-1-yl)-6-piperidin-1-ylpyrimidin-4-yl]piperazin-1-yl}nicotinic acid] | ≤ 1000 nM | 
Cc1cc(C(=O)O)cnc1N1CCN(c2cc(N3CCC(F)CC3)nc(N3CCCC3C)n2)[C@H](C)C1 (stereo partly shown) [6-{4-[6-(4-fluoropiperidin-1-yl)-2-(2-methylpyrrolidin-1-yl)pyrimidin-4-yl]-3-methylpiperazin-1-yl}-5-methylnicotinic acid] | ≤ 1000 nM | 
FC(F)(F)c1cccnc1N1CCN(c2cc(N3CCC4(CC3)OCCO4)nc(N3CCOCC3)n2)CC1 [8-(2-morpholin-4-yl-6-{4-[3-(trifluoromethyl)pyridin-2-yl]piperazin-1-yl}pyrimidin-4-yl)-1,4-dioxa-8-azaspiro[4.5]decane] | ≤ 1000 nM | 
Cc1cc(CO)cnc1N1CCN(c2cc(N3CCCCC3)nc(N3CCCC3C)n2)[C@H](C)C1 (stereo partly shown) [(5-methyl-6-{3-methyl-4-[2-(2-methylpyrrolidin-1-yl)-6-piperidin-1-ylpyrimidin-4-yl]piperazin-1-yl}pyridin-3-yl)methanol] | ≤ 1000 nM | 
COc1cc(CNC(=O)CCCC/C=C/C(C)C)ccc1O [capsaicin] |  | EC90 (human capsaicin receptor [2]): ~100 nM
CCOC(=O)c1cnc(N2CCN(c3cc(N4CCCCC4)nc(N4CCCC4C)n3)[C@H](C)C2)c(C)c1 (stereo partly shown) [ethyl 5-methyl-6-{3-methyl-4-[2-(2-methylpyrrolidin-1-yl)-6-piperidin-1-ylpyrimidin-4-yl]piperazin-1-yl}nicotinate] | ≤ 1000 nM | 
Cl.Cl.Cl.Cl.Cl.Cl.N.N.N.N.N.N.N.N.N.N.N.N.N.N.[O-2].[O-2].[Ru+3].[Ru+3].[Ru+4] [ruthenium red] |  | Ki (VR): ≥ 140000 nM

From patent US20080045525A1, “Piperazinyl-Pyridine Analogues” (priority 2004, published 2008)
